In US20110003778A1, “MINERALCORTICOID RECEPTOR ANTAGONISTS FOR THE TREATMENT OF ENDOMETRIOSIS” (Bayer Schering Pharma Aktiengesellschaft, priority 2007, published 2011):
“Also recorded” adds a separate entry of the source.

Tests used:
endometriotic lesions [1] = assay: Endometriosis model in rhesus macaques: uterus weight and weights/size of endometrial lesions after 60 days of treatment; format: in vivo
Experimental: (§1) The activity of the mineralcorticoid receptor antagonist spironolactone was tested in an endometriosis model in non-human primates. Non-human primates are the only species apart from man where endometriosis occurs spontaneously under natural conditions. They are therefore the most relevant model for examining this disorder. […] In this procedure, the animals are given a depot for estradiol substitution which keeps the serum level at 80 to 100 pg/ml. In this manner, it is ensured that the endometriotic lesions are exposed to physiological concentrations of estradiol. By virtue of the depot, interindividual variations of the hormone concentrations and their effect on the results can be excluded. After the treatment, the size of the endometrium lesions was determined, and the proliferation of these lesions was detected by a histological analysis. […] In an autologous transplantation, a plurality of lesions from endometrium tissue were implanted subcutaneously and intraperitoneally/abdominally into rhesus macaques.

endometriotic lesions [2] = assay: Rate of proliferation of endometrial lesions in the rhesus macaque endometriosis model (Ki67 staining, BrDU incorporation); format: in vivo, rhesus macaques; settings: abdominal lesions, secretory cells; 60 days spironolactone vs control; FIG. 3
Experimental: as §1, with “Accordingly, the mineralcorticoid receptor antagonist spironolactone has” for “In an autologous transplantation,”, “positive effect on endometriosis genesis.” for “plurality of lesions from endometrium tissue were implanted subcutaneously and intraperitoneally/abdominally into rhesus macaques.”
Examination of the rate of proliferation of endometrial lesions in an endometriosis model in rhesus macaques after treatment with spironolactone.
Both detection of cell division in the endometriotic lesions by Ki67 (top row) and by incorporation of BrDU (bottom row) show a reduced value in the animals treated with spironolactone (control, left, compared to spironolactone, right).

[3] = after 60 days of treatment, macaque model, n = 4

Structure (SMILES)	Intraabdominal lesion wt (endometriotic lesions [1]; [3])	Subcutaneous lesion wt (endometriotic lesions [1]; [3])	Uterus wt (endometriotic lesions [1]; [3])	size of the endometriotic lesions compared to control animals (endometriotic lesions [1]; 60 days estradiol + spironolactone 30 mg/kg/day vs estradiol control)	effect on the uterus as such (endometriotic lesions [1]; 60 days estradiol + spironolactone vs estradiol control)	weight of subcutaneous and intraperitoneal/abdominal lesions after treatment (in words) (endometriotic lesions [1]; 60 days estradiol + spironolactone vs estradiol control, both types of lesions)	proliferation in the lesions by bromodeoxyuridine (BrDU) incorporation (endometriotic lesions [2])	proliferation in the lesions by staining of the mitotic antigen Ki67 (endometriotic lesions [2])
C[C@]12CC[C@@H]3c4ccc(O)cc4CC[C@H]3[C@@H]1CC[C@@H]2O [E2, estradiol]	0.068 + 0.11 g	0.039 ± 0.008 g	3.75 ± 0.496 g	–	–	–	–	–
CC(=O)S[C@@H]1CC2=CC(=O)CC[C@]2(C)[C@H]2CC[C@@]3(C)[C@@H](CC[C@@]34CCC(=O)O4)[C@H]12 [spironolactone]	–	–	–	significant reduction of the endometriotic lesions	no significant effect	reduction in weight	reduction of proliferation; also recorded: strongly reduced; also recorded: reduced value	reduction of proliferation; also recorded: strongly reduced; also recorded: reduced value
